Experimental data as given in patent publication US10118947B2, “Modulation of structured polypeptide specificity” (BICYCLE THERAPEUTICS LIMITED, priority 2013, dated 2018).
Each block holds one compound with its values, some of them ahead of it. Numbered stars: 1 amine (or outer) side, 2 acyl side, 3 side chain; on linkers, the order of the positions; unused ones are H or OH. Bridge positions count the residues as written; N and C are the ends. Square brackets hold non-standard residues; d marks the D form. Peptide text beside a SMILES is read from it. Pro(trans-4-F) = O=C(O)[C@@H]1C[C@@H](F)CN1; Tpi = O=C(O)[C@@H]1Cc2c([nH]c3ccccc23)CN1; Ala(2-furyl) = N[C@@H](Cc1ccco1)C(=O)O; 1Nal = N[C@@H](Cc1cccc2ccccc12)C(=O)O; His(τ-Me) = Cn1cnc(C[C@H](N)C(=O)O)c1; TBMB = c1c(C[*:1])cc(C[*:3])cc1C[*:2]; X1 = O=C([C@H](Cn1cncn1)N[*:1])[*:2]; Cha = N[C@@H](CC1CCCCC1)C(=O)O; Agp = N=C(N)NC[C@H](N)C(=O)O; Abu = CC[C@H](N)C(=O)O; βAla = NCCC(=O)O

Legend:
[1] = Plasma stability profiling Method #1 (MALDI-TOF, 35% plasma), rat plasma; assay type: in vitro ADME; settings: method #1
Method: A rapid plasma stability profiling assay was developed that employed mass spectrometric detection (MALDI-TOF, Voyager DE, Applied Biosystems) of the parent mass, until the time when the parent peptide mass was no longer observable. Specifically, 200 uM of peptide was incubated in the presence of 35% rat or human plasma (Sera labs, using citrate as anticoagulant) at 37 deg C., which was supplemented with 1×PBS (derived from a 10×PBS Stock, Sigma). At various time points (i.e. t=0, 3, 24 hrs, henceafter daily up to 10 days), 2 uL of sample was added to 18 uL of 30 mM ammonium bicarbonate in a 1:1 mixture of acetonitrile:H2O. Samples were frozen at −80 deg C. until the time of analysis. For mass spectrometric analysis that determines the approximate detection window of the peptide, the acetonitrile:H2O-diluted sample of a given time point was spotted directly (0.7 uL) onto the MALDI plate. Matrix (alpha-cyanocinnamic acid, Sigma, prepared as a saturated solution in 1:1 acetonitrile:water containing 0.1% trifluoroacetic acid) was layered over the sample (1 uL). At a similar laser intensity setting on the MALDI TOF, the time could then be determined until parent peptide was no longer detectable. It should be noted that this is a qualitative assay serves to detect relative changes in plasma stability.

[2] = target: T1, human plasma Kallikrein (Homo sapiens, UniProt P03952); assay: Functional enzyme inhibition assay with fluorogenic substrate Z-PheArg-AMC, human plasma Kallikrein; assay type: biochemical; settings: Table 24b; for Ki: residue 7 modifications, read-out: Ki; for F (Kivar/KiWT): ratio of Ki to wild type
T1 construct: purchased Stratech, UK
T1 sequence (P03952 20-638): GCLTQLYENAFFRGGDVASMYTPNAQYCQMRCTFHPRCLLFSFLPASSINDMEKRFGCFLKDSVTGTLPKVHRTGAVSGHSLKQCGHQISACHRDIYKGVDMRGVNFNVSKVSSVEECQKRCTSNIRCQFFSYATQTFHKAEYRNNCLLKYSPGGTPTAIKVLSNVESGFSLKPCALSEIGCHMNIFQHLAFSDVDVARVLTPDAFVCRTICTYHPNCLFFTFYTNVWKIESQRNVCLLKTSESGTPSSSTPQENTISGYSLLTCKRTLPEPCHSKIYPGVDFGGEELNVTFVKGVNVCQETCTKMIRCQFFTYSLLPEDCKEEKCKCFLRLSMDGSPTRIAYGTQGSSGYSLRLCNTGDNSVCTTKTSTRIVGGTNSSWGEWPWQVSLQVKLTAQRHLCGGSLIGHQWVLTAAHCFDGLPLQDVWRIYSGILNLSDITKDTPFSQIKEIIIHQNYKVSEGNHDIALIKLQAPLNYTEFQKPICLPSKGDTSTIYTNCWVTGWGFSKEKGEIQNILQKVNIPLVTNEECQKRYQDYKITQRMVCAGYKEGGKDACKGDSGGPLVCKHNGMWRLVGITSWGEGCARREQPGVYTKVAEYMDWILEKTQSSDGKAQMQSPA
Outline: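 Rates of AMC release (excitation 360 nm, emission 460 nm) from 100 μM final Z-PheArg-AMC, 4% DMSO, were taken over the linear phase, typically 5 to 45 minutes. IC50 from four-parameter non-linear regression; Ki also derived.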

Observable in rat plasma, for days ([1]; Table 14): 10 days
SMILES: CC(=O)N[C@H]1CSCc2cc3cc(c2)CSC[C@H](NC(=O)[C@H](CCCNC(=N)N)NC(=O)CCNC(=O)[C@@H]2CCCN2C(=O)[C@H](Cc2c[nH]c4ccccc24)NC(=O)[C@H](CO)NC1=O)C(=O)N[C@@H](CC(C)C)C(=O)N[C@@H](Cc1c[nH]cn1)C(=O)N[C@@H](CCC(N)=O)C(=O)N[C@@H](CC(=O)O)C(=O)N[C@@H](CC(C)C)C(=O)N[C@H](C(N)=O)CSC3 [Ac-(06-34-18) β-Ala4] (Ac-CSWP[βAla]RCLHQDLC-NH2; linker 1-7-13 via TBMB)

Observable in rat plasma, for days ([1]; Table 21): 2 days
SMILES: CC(=O)N[C@H]1CSCc2cc3cc(c2)CSC[C@H](NC(=O)[C@H](CCCNC(=N)N)NC(=O)[C@H](Cc2ccc(O)cc2)NC(=O)[C@@H]2CCCN2C(=O)[C@H](Cc2c[nH]c4ccccc24)NC(=O)[C@H](CO)NC1=O)C(=O)N[C@@H](CC(C)C)C(=O)N[C@@H](Cc1c[nH]cn1)C(=O)N[C@@H](CCC(N)=O)C(=O)N[C@@H](CC(=O)O)C(=O)N[C@@H](CC(C)C)C(=O)N[C@H](C(N)=O)CSC3 [Ac-(06-34-18) WPYR] (Ac-CSWPYRCLHQDLC-NH2; linker 1-7-13 via TBMB)

Observable in rat plasma, for days ([1]; Table 21): 2 days
SMILES: CC(=O)N[C@H]1CSCc2cc3cc(c2)CSC[C@H](NC(=O)[C@H](CCCNC(=N)N)NC(=O)[C@H](CO)NC(=O)[C@@H]2CCCN2C(=O)[C@H](Cc2c[nH]c4ccccc24)NC(=O)[C@H](CO)NC1=O)C(=O)N[C@@H](CC(C)C)C(=O)N[C@@H](Cc1c[nH]cn1)C(=O)N[C@@H](CCC(N)=O)C(=O)N[C@@H](CC(=O)O)C(=O)N[C@@H](CC(C)C)C(=O)N[C@H](C(N)=O)CSC3 [Ac-(06-34-18) WPSR] (Ac-CSWPSRCLHQDLC-NH2; linker 1-7-13 via TBMB)

Ki [2]: 0.455 µM | F (Kivar/KiWT) [2]: 1084
SMILES: CC(=O)N[C@H]1CSCc2cc3cc(c2)CSC[C@H](NC(=O)[C@H](CCCNC(=N)N)NC(=O)[C@H](Cc2ccc(O)cc2)NC(=O)[C@@H]2CCCN2C(=O)[C@H](Cc2ccccc2)NC(=O)[C@H](CO)NC1=O)C(=O)N[C@@H](CC(C)C)C(=O)N[C@@H](Cn1cncn1)C(=O)N[C@@H](CCC(N)=O)C(=O)N[C@@H](CC(=O)O)C(=O)N[C@@H](CC(C)C)C(=O)N[C@H](C(N)=O)CSC3 [Ac-(06-34-18) Phe2 Tyr4 1,2,4-TriAz7] (Ac-CSFPYRCL[X1]QDLC-NH2; linker 1-7-13 via TBMB)

Ki [2]: 0.672 µM | F (Kivar/KiWT) [2]: 1599
SMILES: CC(=O)N[C@H]1CSCc2cc3cc(c2)CSC[C@H](NC(=O)[C@H](CCCNC(=N)N)NC(=O)[C@H](Cc2ccc(O)cc2)NC(=O)[C@@H]2CCCN2C(=O)[C@H](Cc2ccccc2)NC(=O)[C@H](CO)NC1=O)C(=O)N[C@@H](CC(C)C)C(=O)N[C@@H](CNC(=N)N)C(=O)N[C@@H](CCC(N)=O)C(=O)N[C@@H](CC(=O)O)C(=O)N[C@@H](CC(C)C)C(=O)N[C@H](C(N)=O)CSC3 [Ac-(06-34-18) Phe2 Tyr4 Agp7] (Ac-CSFPYRCL[Agp]QDLC-NH2; linker 1-7-13 via TBMB)

Ki [2]: 0.01 µM | F (Kivar/KiWT) [2]: 23
SMILES: CC(=O)N[C@H]1CSCc2cc3cc(c2)CSC[C@H](NC(=O)[C@H](CCCNC(=N)N)NC(=O)[C@H](Cc2ccc(O)cc2)NC(=O)[C@@H]2CCCN2C(=O)[C@H](Cc2ccccc2)NC(=O)[C@H](CO)NC1=O)C(=O)N[C@@H](CC(C)C)C(=O)N[C@@H](Cc1cn(C)cn1)C(=O)N[C@@H](CCC(N)=O)C(=O)N[C@@H](CC(=O)O)C(=O)N[C@@H](CC(C)C)C(=O)N[C@H](C(N)=O)CSC3 [Ac-(06-34-18) Phe2 Tyr4 His1Me7] (Ac-CSFPYRCL[His(τ-Me)]QDLC-NH2; linker 1-7-13 via TBMB)

F (Kivar/KiWT) [2]: 39
SMILES: CC(=O)N[C@H]1CSCc2cc3cc(c2)CSC[C@H](NC(=O)[C@H](CCCNC(=N)N)NC(=O)[C@H](Cc2ccc(O)cc2)NC(=O)[C@@H]2CCCN2C(=O)[C@H](Cc2ccccc2)NC(=O)[C@H](CO)NC1=O)C(=O)N[C@@H](CC(C)C)C(=O)N[C@@H](Cc1ccco1)C(=O)N[C@@H](CCC(N)=O)C(=O)N[C@@H](CC(=O)O)C(=O)N[C@@H](CC(C)C)C(=O)N[C@H](C(N)=O)CSC3 [Ac-(06-34-18) Phe2 Tyr4 4FuAla7] (Ac-CSFPYRCL[Ala(2-furyl)]QDLC-NH2; linker 1-7-13 via TBMB)

More lines, now with the values behind:

SMILES: CC(=O)N[C@H]1CSCc2cc3cc(c2)CSC[C@H](NC(=O)[C@H](CCCNC(=N)N)NC(=O)[C@H](C)NC(=O)[C@@H]2CCCN2C(=O)[C@H](Cc2cccc4ccccc24)NC(=O)[C@H](CO)NC1=O)C(=O)N[C@@H](CC(C)C)C(=O)N[C@@H](Cc1c[nH]cn1)C(=O)N[C@@H](CCC(N)=O)C(=O)N[C@@H](CC(=O)O)C(=O)N[C@@H](CC(C)C)C(=O)N[C@H](C(N)=O)CSC3 [Ac-(06-34-18) 1NAL2] (Ac-CS[1Nal]PARCLHQDLC-NH2; linker 1-7-13 via TBMB)
Observable in rat plasma, for days ([1]; Table 12): 2 days

SMILES: CC(=O)N[C@H]1CSCc2cc3cc(c2)CSC[C@H](NC(=O)[C@H](CCCNC(=N)N)NC(=O)[C@H](C)NC(=O)[C@@H]2C[C@@H](F)CN2C(=O)[C@H](Cc2c[nH]c4ccccc24)NC(=O)[C@H](CO)NC1=O)C(=O)N[C@@H](CC(C)C)C(=O)N[C@@H](Cc1c[nH]cn1)C(=O)N[C@@H](CCC(N)=O)C(=O)N[C@@H](CC(=O)O)C(=O)N[C@@H](CC(C)C)C(=O)N[C@H](C(N)=O)CSC3 [Ac-(06-34-18) 4FluoPro3] (Ac-CSW[Pro(trans-4-F)]ARCLHQDLC-NH2; linker 1-7-13 via TBMB)
Observable in rat plasma, for days ([1]; Table 13): 2 days

SMILES: CC(=O)N[C@H]1CSCc2cc3cc(c2)CSC[C@H](NC(=O)[C@H](CCCNC(=N)N)NC(=O)[C@H](C)NC(=O)[C@@H]2CCCN2C(=O)[C@H](CC2CCCCC2)NC(=O)[C@H](CO)NC1=O)C(=O)N[C@@H](CC(C)C)C(=O)N[C@@H](Cc1c[nH]cn1)C(=O)N[C@@H](CCC(N)=O)C(=O)N[C@@H](CC(=O)O)C(=O)N[C@@H](CC(C)C)C(=O)N[C@H](C(N)=O)CSC3 [Ac-(06-34-18) Cha2] (Ac-CS[Cha]PARCLHQDLC-NH2; linker 1-7-13 via TBMB)
Observable in rat plasma, for days ([1]; Table 12): 2 days

SMILES: CC[C@@H]1NC(=O)[C@@H]2CCCN2C(=O)[C@H](Cc2c[nH]c3ccccc23)NC(=O)[C@H](CO)NC(=O)[C@@H](NC(C)=O)CSCc2cc3cc(c2)CSC[C@H](NC(=O)[C@H](CCCNC(=N)N)NC1=O)C(=O)N[C@@H](CC(C)C)C(=O)N[C@@H](Cc1c[nH]cn1)C(=O)N[C@@H](CCC(N)=O)C(=O)N[C@@H](CC(=O)O)C(=O)N[C@@H](CC(C)C)C(=O)N[C@H](C(N)=O)CSC3 [Ac-(06-34-18) Aba4] (Ac-CSWP[Abu]RCLHQDLC-NH2; linker 1-7-13 via TBMB)
Observable in rat plasma, for days ([1]; Table 14): 2 days

SMILES: CC(=O)N[C@H]1CSCc2cc3cc(c2)CSC[C@H](NC(=O)[C@H](CCCNC(=N)N)NC(=O)[C@H](C)NC(=O)[C@@H]2CCCN2C(=O)[C@@H]2Cc4c([nH]c5ccccc45)CN2C(=O)[C@H](CO)NC1=O)C(=O)N[C@@H](CC(C)C)C(=O)N[C@@H](Cc1c[nH]cn1)C(=O)N[C@@H](CCC(N)=O)C(=O)N[C@@H](CC(=O)O)C(=O)N[C@@H](CC(C)C)C(=O)N[C@H](C(N)=O)CSC3 [Ac-(06-34-18) NorHar2] (Ac-CS[Tpi]PARCLHQDLC-NH2; linker 1-7-13 via TBMB)
Observable in rat plasma, for days ([1]; Table 12): 2 days
